Values of other authors as cited in patent US7422793B2, “Non-toxic corrosion-protection rinses and seals based on rare earth elements” (University of Dayton, priority 2002, dated 2008).
Like-named read-outs stand apart in the source and are kept apart here.

Conditions: cited from earlier work

Molecule	Solubility in Water (pH 7)	Solubility in Water (fluoride preparative agents, at or near 25° C. and at or near pH 7)
[Cs+].[Cs+].[F][Sn-2]([F])([F])([F])([F])[F] [Cesium hexafluorostannate]	0.079 mol/L	–
Rubidium hexafluorostannate	0.062 mol/L	–
Rubidium hexafluorozirconate	0.0848 mol/L	–
Ammonium selenate	6.0 × 10^0 mole/L	–
F[Si-2](F)(F)(F)(F)F.[NH4+].[NH4+] [Ammonium hexafluorosilicate]	1.04 × 10^0 mole/L	–
Rubidium periodate	0.024 mol/L	–
[Cs+].[O-][Cl+3]([O-])([O-])[O-] [Cesium perchlorate]	0.086 mol/L	–
F[Si-2](F)(F)(F)(F)F.[Na+].[Na+] [Sodium hexafluorosilicate]	–	0.035 mol/L
Sodium tungstate	249 mol/L	–
[K+].[K+].[O]=[Sn]([O-])[O-] [Potassium stannate]	3.7 × 10^0 mole/L	–
Silver (I) fluorogallate	1 × 10^0 mole/L	–
[Li+].[Li+].[O]=[Sn]([O-])[O-] [Lithium stannate]	5 × 10^0 mole/L	–
[Li+].[Li+].[O-][O-] [Lithium peroxide]	1 × 10^0 mole/L	–
[O-][Cl+2]([O-])[O-].[O-][Cl+2]([O-])[O-].[Zn+2] [Zinc chlorate]	8.6 × 10^0 mole/L	–
[Na+].[Na+].[O-][O-] [Sodium peroxide]	1 × 10^0 mole/L	–
[F][Zr-2]([F])([F])([F])([F])[F].[Na+].[Na+] [Sodium hexafluorozirconate]	0.06 mol/L	–
CC[N+](CC)(CC)CC.[O-][Cl+3]([O-])([O-])[O-] [Et4N^+ perchlorate]	0.5 mol/L	–

Molecule	Solubility in Water (pH 7)	Solubility in Water (fluoride preparative agents, at or near 25° C. and at or near pH 7)
Potassium vanadate	1 × 10^0 mole/L	–
Cesium germanate	0.5 mol/L	–
F[Si-2](F)(F)(F)(F)F.[Zn+2] [Zinc hexafluorosilicate]	1.11 × 10^0 mole/L	–
Rubidium hexafluorotitanate	0.025 mol/L	–
[Cs+].[O-][Cl+2]([O-])[O-] [Cesium chlorate]	0.29 mol/L	–
[F][Sb]([F])([F])([F])[F] [Antimony (V) fluoride]	1 × 10^0 mole/L	–
[K+].[K+].[O]=[Mo](=[O])([O-])[O-] [Potassium molybdate]	775 mol/L	–
Strontium nitrite	3.8 × 10^0 mole/L	–
O=N[O-].[Li+] [Lithium nitrite]	28 mol/L	–
[Li+].[Nb+5].[O-2].[O-2].[O-2] [Lithium niobate]	0.1 mol/L	–
[O-][Cl+3]([O-])([O-])[O-].[O-][Cl+3]([O-])([O-])[O-].[Zn+2] [Zinc perchlorate]	1 × 10^0 mole/L	–
[F][Hf-2]([F])([F])([F])([F])[F].[Na+].[Na+] [Sodium hexafluorohafnate]	0.07 mol/L	–
Potassium niobate	0.05 mol/L	–
[Li+].[O]=[Ta](=[O])[O-] [Lithium tantalate]	0.01 mol/L	–
F[B-](F)(F)F.[Li+] [Lithium tetrafluoroborate]	5 × 10^0 mole/L	–
[O-][Cl+3]([O-])([O-])O [Sodium perchlorate]	12 mol/L	–
